Drawing on US20120319032A1, “Biodegradable, Frost Proof Heat-Transfer Fluid, Use Thereof In Near-Surface Geothermal Installations, And A Concentrate For Preparing Same” (priority 2010, published 2012), this text covers Degradability, Assessment of degradability and Biodegradability for seven compounds.

Read-outs that look alike come from different tables or passages of the source.

The conditions of data set [1]: OECD 301A, manufacturer safety data sheet, cited from earlier work.
The conditions of data set [2]: shown in studies (Geothermics 36 (2007) 348 - 361); cited from earlier work.
The conditions of data set [3]: 301D; 28 d; Research report 200 24 233 UBA-FB 000298; cited from earlier work.
The conditions of data set [4]: 302B; 28 d; Research report 200 24 233 UBA-FB 000298; cited from earlier work.
The conditions of data set [5]: OECD 301B, manufacturer safety data sheet, cited from earlier work.
A short description of data set [6]: Biodegradability, test method OECD 301 B. As to conditions: in-house measurement. The method, then:
The biodegradability of the inventive composition and constituents thereof is determined according to the OECD Guidelines for Testing of Chemicals 301 and 311.
The corrosion inhibitor or, if more than one corrosion inhibitor is used, all corrosion inhibitors used have good biodegradability (are “readily degradable”) according to the respectively applicable test method OECD 301 A (for water-soluble corrosion inhibitors) or OECD 301 B (for sparingly water-soluble corrosion inhibitors), each in the version dated Jul. 17, 1992. Good biodegradability is defined in point 10 of OECD 301.

`CC(O)CO` (centres unmarked) [1,2-propylene glycol]: the Degradability in data set [1] (duration not given) is >70%. Besides, the Assessment of degradability entry in data set [1] is listed as “good”. In data set [2], the Biodegradability result is “good”.
For `c1ccc2[nH]nnc2c1` [Benzotriazole], the Degradability was 0% (28 d) in data set [3] and 12% (28 d) in data set [4].
`CC(C)CCCCCC(=O)O` [Inhibitor A, isononanoic acid]: the Degradability result in data set [5] (25 d) is given as “approx. 63%”. The Assessment of degradability entry in data set [5] is recorded as “moderately”.
`CCCCC(CC)C(=O)O` (centres unmarked) [Inhibitor B, 2-ethylhexanoic acid]: in data set [5] (25 d), the Degradability result is “approx. 90%”. In data set [5], the Assessment of degradability result is reported as “good”.
For `O=C(O)CCCCCCCCC(=O)O` [Inhibitor C, sebacic acid], the Degradability in data set [6] (25 d) is >80% (25 d). In data set [6], the Assessment of degradability entry is “good”.
Consider `CC(C)CCCCCC(=O)NCCCCCC(=O)O` [Inhibitor X], for which the Degradability in data set [5] (15 d) is on record as >90% (15 d). In addition, the Assessment of degradability result in data set [5] is “good”.
On to `OCCO` [ethylene glycol], for which the Biodegradability entry in data set [2] is on record as “good”.
